Literature values as cited in patent US20230330064A1, “TYROSINE, TRYPTOPHAN AND PHENYLALANINE AS mTOR AGONISTS MEDIATING PROTEASOME DYNAMICS, COMPOSITIONS, METHODS AND USES THEREOF IN THERAPY, AND PROGNOSTIC METHODS FOR DRUG-RESISTANCE” (Technion Research & Development Foundation Limited, priority 2020, published 2023).

Test system: MCF-7
Settings: cited from earlier work

For `N[C@@H](Cc1c[nH]c2cccc(F)c12)C(=O)O` [L-(4-F) Trp], the “growth of MCF-7 cells” value is listed as “completely inhibited the growth”.
